This note sets out measurements from patent US12600709B2, “Nonpeptide somatostatin type 5 receptor agonists and uses thereof” (Crinetics Pharmaceuticals, Inc., priority 2019, dated 2026).

Assay [1] addresses T1, human somatostatin receptor subtype 5 (Homo sapiens, UniProt P35346).
T1 construct: expressed in transfected cells
Put plainly: cAMP assay for SST5R (inhibition of cAMP in CHO-K1 cells). The assay is classed as cell-based. Conditions: for EC50: inhibition of cAMP via human SST5 receptor, read-out: SST5 potency; for Fold selectivity for SST5 vs SST2: class symbols, SST5 receptor over SST2 receptor. The method, boiled down:
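CHO-K1 cells stably expressing human SSTR5 were treated 20 min at 37 °C with compounds plus 1.6 μM NKH477 in HBSS, 0.5 mM HEPES pH 7.4, 0.1% BSA, 0.2 mM IBMX. Lysate cAMP measured by HTRF against a standard curve; EC50 from cAMP-versus-concentration plots.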

The target of assay [2] is T2, human somatostatin receptor subtype 2 (Homo sapiens, UniProt P30874).
T2 construct: expressed in transfected cells
T2 sequence (P30874 whole entry): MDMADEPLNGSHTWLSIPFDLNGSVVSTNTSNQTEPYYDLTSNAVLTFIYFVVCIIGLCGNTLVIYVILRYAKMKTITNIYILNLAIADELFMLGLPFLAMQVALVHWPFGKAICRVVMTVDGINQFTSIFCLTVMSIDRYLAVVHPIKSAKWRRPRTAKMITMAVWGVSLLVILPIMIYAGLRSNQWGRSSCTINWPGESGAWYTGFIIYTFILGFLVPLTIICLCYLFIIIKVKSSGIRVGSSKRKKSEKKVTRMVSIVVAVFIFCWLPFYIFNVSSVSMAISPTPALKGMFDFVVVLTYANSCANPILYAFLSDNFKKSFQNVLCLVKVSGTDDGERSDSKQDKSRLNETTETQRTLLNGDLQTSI
Put plainly: cAMP assay for SST2R (inhibition of cAMP in CHO-K1 cells). Format: cell-based. The following applies: Table B; inhibition of cAMP via human SST2 receptor; read-out: SST2 potency. Summed up: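 Agonism read as decrease in NKH477 (1.6 μM)-stimulated cAMP: compounds applied 20 min, 37° C, with 0.2 mM IBMX, to CHO-K1 stably expressing human SSTR2. cAMP quantified in lysates by time-resolved fluorescence (HTRF kit, 1-24 h RT), standard-curve regression, then EC50.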

Read-outs that look alike come from different tables or passages of the source.

T1 sequence (P35346 whole entry): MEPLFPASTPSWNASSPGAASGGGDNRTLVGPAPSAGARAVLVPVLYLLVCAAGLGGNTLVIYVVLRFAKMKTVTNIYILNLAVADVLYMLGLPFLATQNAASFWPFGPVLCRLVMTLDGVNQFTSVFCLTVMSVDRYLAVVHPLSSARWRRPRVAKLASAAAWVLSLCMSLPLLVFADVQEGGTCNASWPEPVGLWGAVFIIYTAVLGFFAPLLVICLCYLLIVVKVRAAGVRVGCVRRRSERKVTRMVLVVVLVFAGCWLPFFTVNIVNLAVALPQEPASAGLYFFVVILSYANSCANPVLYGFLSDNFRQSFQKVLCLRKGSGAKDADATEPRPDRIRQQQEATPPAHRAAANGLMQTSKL

In the case of `CC(C)CNC(=O)c1cnc(C#N)c(-c2ccnc(C(F)(F)F)c2)c1N1CC[C@](C)(N)C1` [1-250, 4-[(3S)-3-amino-3-methylpyrrolidin-1-yl]-2-cyano-N-(2-methylpropyl)-2′-(trifluoromethyl)-[3,4′-bipyridine]-5-carboxamide], the EC50 was below 10 nM in assay [1] (Table A), below 10 nM in assay [1] (Table B) and above 1000 nM in assay [2]. The “Fold selectivity for SST5 vs SST2” value in assay [1] (Table B) was “+++ (+++=>500)”.
Turning to `CCCCNC(=O)c1cnc(C#N)c(-c2ccnc(C(F)(F)F)c2)c1N1CC[C@](C)(N)C1` [1-251, 4-[(3S)-3-amino-3-methylpyrrolidin-1-yl]-N-butyl-2-cyano-2′-(trifluoromethyl)-[3,4′-bipyridine]-5-carboxamide], the figures for the EC50 in assay [1] (Table A), in assay [1] (Table B) and in assay [2] were below 10 nM, below 10 nM and above 1000 nM, respectively. Further, the “Fold selectivity for SST5 vs SST2” value in assay [1] (Table B) is reported as “+++ (+++=>500)”.
For `COc1cc(-c2c(C#N)ncc(C(=O)NC3CCCCC3)c2N2CC[C@](C)(N)C2)ccn1` [1-252, 4-[(3S)-3-amino-3-methylpyrrolidin-1-yl]-2-cyano-N-cyclohexyl-2′-methoxy-[3,4′-bipyridine]-5-carboxamide], the EC50 in assay [1] (Table A) was below 10 nM; in assay [1] (Table B), below 10 nM; in assay [2], 100 to 1000 nM. The “Fold selectivity for SST5 vs SST2” value in assay [1] (Table B) is “+++ (+++=>500)”.
For the molecule `CCC(CC)NC(=O)c1cnc(C#N)c(-c2ccnc(OC)c2)c1N1CC[C@](C)(N)C1` [1-253, 4-[(3S)-3-amino-3-methylpyrrolidin-1-yl]-2-cyano-2′-methoxy-N-(pentan-3-yl)-[3,4′-bipyridine]-5-carboxamide], the EC50 was below 10 nM in assay [1] (Table A), below 10 nM in assay [1] (Table B) and 100 to 1000 nM in assay [2]. Further, the “Fold selectivity for SST5 vs SST2” value in assay [1] (Table B) is reported as “+++ (+++=>500)”.
On to `COc1cc(-c2c(C#N)ncc(C(=O)NC3CCCC3)c2N2CC[C@](C)(N)C2)ccn1` [1-254, 4-[(3S)-3-amino-3-methylpyrrolidin-1-yl]-2-cyano-N-cyclopentyl-2′-methoxy-[3,4′-bipyridine]-5-carboxamide], for which the EC50 was below 10 nM in assay [1] (Table A), below 10 nM in assay [1] (Table B) and above 1000 nM in assay [2]. Further, the “Fold selectivity for SST5 vs SST2” value in assay [1] (Table B) is given as “+++ (+++=>500)”.
`COc1cc(-c2c(C)ncc(C(=O)NC3CCCCC3)c2N2CC[C@](C)(N)C2)ccn1` [1-255, 4-[(3S)-3-amino-3-methylpyrrolidin-1-yl]-N-cyclohexyl-2′-methoxy-2-methyl-[3,4′-bipyridine]-5-carboxamide]: the figures for the EC50 in assay [1] (Table A), in assay [1] (Table B) and in assay [2] were below 10 nM, below 10 nM and above 1000 nM, respectively. In assay [1] (Table B), the “Fold selectivity for SST5 vs SST2” value is recorded as “+++ (+++=>500)”.
Take `COc1cc(-c2c(C)ncc(C(=O)NC3CCCC3)c2N2CC[C@](C)(N)C2)ccn1` [1-256, 4-[(3S)-3-amino-3-methylpyrrolidin-1-yl]-N-cyclopentyl-2′-methoxy-2-methyl-[3,4′-bipyridine]-5-carboxamide]: the figures for the EC50 in assay [1] (Table A), in assay [1] (Table B) and in assay [2] were below 10 nM, below 10 nM and above 1000 nM, respectively. Further, the “Fold selectivity for SST5 vs SST2” value in assay [1] (Table B) was “+++ (+++=>500)”.
In the case of `Cc1ncc(C(=O)NC2CCCCC2)c(N2CC[C@](C)(N)C2)c1-c1ccnc(C(F)(F)F)c1` [1-257, 4-[(3S)-3-amino-3-methylpyrrolidin-1-yl]-N-cyclohexyl-2-methyl-2′-(trifluoromethyl)-[3,4′-bipyridine]-5-carboxamide], the values for the EC50 in assay [1] (Table A), in assay [1] (Table B) and in assay [2] were below 10 nM, below 10 nM and above 1000 nM, respectively. For the same molecule, the “Fold selectivity for SST5 vs SST2” value in assay [1] (Table B) is listed as “+++ (+++=>500)”.
For `Cc1ncc(C(=O)NC2CCCC2)c(N2CC[C@](C)(N)C2)c1-c1ccnc(C(F)(F)F)c1` [1-258, 4-[(3S)-3-amino-3-methylpyrrolidin-1-yl]-N-cyclopentyl-2-methyl-2′-(trifluoromethyl)-[3,4′-bipyridine]-5-carboxamide], the EC50 in assay [1] (Table A) was below 10 nM; in assay [1] (Table B), below 10 nM; in assay [2] it was above 1000 nM. Moreover, the “Fold selectivity for SST5 vs SST2” value in assay [1] (Table B) is recorded as “+++ (+++=>500)”.
With `COc1ncc(C(=O)N[C@@H](C)C(F)(F)F)c(N2CC[C@](C)(N)C2)c1-c1ccc(F)c(F)c1` [1-259, 4-[(3S)-3-amino-3-methylpyrrolidin-1-yl]-5-(3,4-difluorophenyl)-6-methoxy-N-[(2S)-1,1,1-trifluoropropan-2-yl]pyridine-3-carboxamide], the EC50 was below 10 nM in assay [1] (Table A), below 10 nM in assay [1] (Table B) and 10 to 100 nM in assay [2]. For the same molecule, in assay [1] (Table B), the “Fold selectivity for SST5 vs SST2” value is on record as “+++ (+++=>500)”.
For the molecule `COc1ncc(C(=O)N[C@@H](C)C(F)(F)F)c(N2CC[C@](C)(N)C2)c1-c1ccc(Cl)c(F)c1` [1-260, 4-[(3S)-3-amino-3-methylpyrrolidin-1-yl]-5-(4-chloro-3-fluorophenyl)-6-methoxy-N-[(2S)-1,1,1-trifluoropropan-2-yl]pyridine-3-carboxamide], the EC50 in assay [1] (Table A) is below 10 nM; in assay [1] (Table B), below 10 nM; in assay [2], 100 to 1000 nM. Also, the “Fold selectivity for SST5 vs SST2” value in assay [1] (Table B) is “+++ (+++=>500)”.
With `COc1ncc(C(=O)N[C@@H](C)C(F)(F)F)c(N2CC[C@](C)(N)C2)c1-c1ccc(F)c(Cl)c1` [1-261, 4-[(3S)-3-amino-3-methylpyrrolidin-1-yl]-5-(3-chloro-4-fluorophenyl)-6-methoxy-N-[(2S)-1,1,1-trifluoropropan-2-yl]pyridine-3-carboxamide], the EC50 in assay [1] (Table A) was below 10 nM; in assay [1] (Table B), below 10 nM; in assay [2], 100 to 1000 nM. In assay [1] (Table B), the “Fold selectivity for SST5 vs SST2” value is given as “+++ (+++=>500)”.
As for `COc1ncc(C(=O)N[C@@H](C)C2CC2)c(N2CC[C@](C)(N)C2)c1-c1ccc(F)c(F)c1` [1-262, 4-[(3S)-3-amino-3-methylpyrrolidin-1-yl]-N-[(1S)-1-cyclopropylethyl]-5-(3,4-difluorophenyl)-6-methoxypyridine-3-carboxamide], the EC50 is below 10 nM in assay [1] (Table A), below 10 nM in assay [1] (Table B) and 100 to 1000 nM in assay [2]. The “Fold selectivity for SST5 vs SST2” value in assay [1] (Table B) is reported as “+++ (+++=>500)”.
Take `COc1ncc(C(=O)N[C@@H](C)C2CC2)c(N2CC[C@](C)(N)C2)c1-c1ccc(Cl)c(F)c1` [1-263, 4-[(3S)-3-amino-3-methylpyrrolidin-1-yl]-5-(4-chloro-3-fluorophenyl)-N-[(1S)-1-cyclopropylethyl]-6-methoxypyridine-3-carboxamide]: the EC50 in assay [1] (Table A) was below 10 nM; in assay [1] (Table B), below 10 nM; in assay [2], above 1000 nM. The “Fold selectivity for SST5 vs SST2” value in assay [1] (Table B) is listed as “+++ (+++=>500)”.
In the case of `C[C@H](NC(=O)c1cnc(OCCC(=O)O)c(-c2cc(F)cc(F)c2)c1N1CC[C@](C)(N)C1)C1CC1` [1-264, 3-({4-[(3S)-3-amino-3-methylpyrrolidin-1-yl]-5-{[(1S)-1-cyclopropylethyl]carbamoyl}-3-(3,5-difluorophenyl)pyridin-2-yl}oxy)propanoic acid], the EC50 in assay [1] (Table A) was below 10 nM; in assay [1] (Table B), below 10 nM; in assay [2] it was above 1000 nM. Moreover, the “Fold selectivity for SST5 vs SST2” value in assay [1] (Table B) is on record as “+++ (+++=>500)”.
For `C[C@H](NC(=O)c1cnc(OCCCC(=O)O)c(-c2cc(F)cc(F)c2)c1N1CC[C@](C)(N)C1)C1CC1` [1-265, 4-({4-[(3S)-3-amino-3-methylpyrrolidin-1-yl]-5-{[(1S)-1-cyclopropylethyl]carbamoyl}-3-(3,5-difluorophenyl)pyridin-2-yl}oxy)butanoic acid], the results for the EC50 in assay [1] (Table A), in assay [1] (Table B) and in assay [2] were below 10 nM, below 10 nM and above 1000 nM, respectively. Also, the “Fold selectivity for SST5 vs SST2” value in assay [1] (Table B) is “+++ (+++=>500)”.
`C[C@H](NC(=O)c1cnc(OCC2COC2)c(-c2cc(F)cc(F)c2)c1N1CC[C@](C)(N)C1)C1CC1` [1-266, 4-[(3S)-3-amino-3-methylpyrrolidin-1-yl]-N-[(1S)-1-cyclopropylethyl]-5-(3,5-difluorophenyl)-6-[(oxetan-3-yl)methoxy]pyridine-3-carboxamide]: the EC50 is below 10 nM in assay [1] (Table A), below 10 nM in assay [1] (Table B) and above 1000 nM in assay [2]. Besides, in assay [1] (Table B), the “Fold selectivity for SST5 vs SST2” value is listed as “+++ (+++=>500)”.
In the case of `C[C@H](NC(=O)c1cnc(OCc2ccccc2)c(-c2cc(F)cc(F)c2)c1N1CC[C@](C)(N)C1)C1CC1` [1-267, 4-[(3S)-3-amino-3-methylpyrrolidin-1-yl]-6-(benzyloxy)-N-[(1S)-1-cyclopropylethyl]-5-(3,5-difluorophenyl)pyridine-3-carboxamide], the figures for the EC50 in assay [1] (Table A), in assay [1] (Table B) and in assay [2] were below 10 nM, below 10 nM and 100 to 1000 nM, respectively. Further, the “Fold selectivity for SST5 vs SST2” value in assay [1] (Table B) is “+++ (+++=>500)”.
For `COc1cc(C#N)cc(-c2c(C)ncc(C(=O)NC3CCC(F)(F)CC3)c2N2CC[C@](C)(N)C2)c1` [1-268, 4-[(3S)-3-amino-3-methylpyrrolidin-1-yl]-5-(3-cyano-5-methoxyphenyl)-N-(4,4-difluorocyclohexyl)-6-methylpyridine-3-carboxamide], the EC50 was below 10 nM in assay [1] (Table A), below 10 nM in assay [1] (Table B) and above 1000 nM in assay [2]. In assay [1] (Table B), the “Fold selectivity for SST5 vs SST2” value is reported as “+++ (+++=>500)”.
As for `COc1cc(C#N)cc(-c2c(C)ncc(C(=O)NC3CC(F)(F)C3)c2N2CC[C@](C)(N)C2)c1` [1-269, 4-[(3S)-3-amino-3-methylpyrrolidin-1-yl]-5-(3-cyano-5-methoxyphenyl)-N-(3,3-difluorocyclobutyl)-6-methylpyridine-3-carboxamide], the EC50 is below 10 nM in assay [1] (Table A), below 10 nM in assay [1] (Table B) and 100 to 1000 nM in assay [2]. The “Fold selectivity for SST5 vs SST2” value in assay [1] (Table B) is reported as “+++ (+++=>500)”.
